Measurements: patent US9126966B2, “Cationic lipids and methods of use thereof” (Protiva Biotherapeutics, Inc., priority 2011, dated 2015)

System: Liver ApoB mRNA
Assay: Liver ApoB mRNA knockdown after IV injection of LNP formulations, branched DNA assay (QuantiGene) relative to GAPDH
Assay type: in vivo, female Balb/c mice
Details: 1:57 LNP with ApoB siRNA; for ApoB knockdown relative to PBS control: IV 0.033 mg/kg total siRNA, standard deviation in brackets; for ApoB knockdown relative to PBS control / ApoB knockdown relative PBS control: liver mRNA at 48 hours; for ApoB-silencing activity of LNP formulations (in words): IV 0.033 mg/kg, summary of Table 3
Description: (§1) LNP formulations were administered by IV injection at 0.033 mg/kg total siRNA dose into female Balb/c mice (n=3 per group). Liver ApoB mRNA levels were evaluated at 48 hours after LNP administration by a branched DNA assay (QuantiGene assay) to assess ApoB mRNA relative to the housekeeping gene GAPDH.
as §1, with “intravenous” for “IV”, “doses of 0.0075, 0.015 and 0.03” for “0.033”, “evaluated” for “evaluated at”, “and standardized” for “to assess ApoB mRNA”

CCCCC/C=C\C/C=C\CCCCCCCCC1CC(CCCCCCC/C=C\C/C=C\CCCCC)OC(CCN(C)C)O1 (centres unmarked) [Compound 8, 2-(4-((8Z,11Z)-heptadeca-8,11-dien-1-yl)-6-((9Z,12Z)-octadeca-9,12-dien-1-yl)-1,3-dioxan-2-yl)-N,N-dimethylethanamine]
ApoB knockdown relative to PBS control: −71 (±2.7) %
ApoB-silencing activity of LNP formulations (in words): particularly potent ApoB-silencing activity

CCCCC/C=C\C/C=C\CCCCCCCCC1CC(CCCCCCC/C=C\C/C=C\CCCCC)OC(CCCN(C)C)O1 (centres unmarked) [Compound 9, 3-(4-((8Z,11Z)-heptadeca-8,11-dien-1-yl)-6-((9Z,12Z)-octadeca-9,12-dien-1-yl)-1,3-dioxan-2-yl)-N,N-dimethylpropan-1-amine]
ApoB knockdown relative PBS control (IV 0.0075 mg/kg total siRNA): −39%
ApoB knockdown relative PBS control (IV 0.015 mg/kg total siRNA): −51%
ApoB knockdown relative PBS control (IV 0.03 mg/kg total siRNA): −73%
ApoB knockdown relative to PBS control: −80 (±3.3) %
ApoB-silencing activity of LNP formulations (in words): particularly potent ApoB-silencing activity
Potency of LNP formulations compared with reference lipid (in words) (IV 0.0075, 0.015 and 0.03 mg/kg, summary of Table 5): more potent than LNP formulations containing C2K

CCCCC/C=C\C/C=C\CCCCCCCCC1(CCCCCCCC/C=C\C/C=C\CCCCC)OCC(CCN(C)C)O1 (centres unmarked) [Compound C2K, 2,2-dilinoleyl-4-(2-dimethylaminoethyl)[1,3]-dioxolane, reference compound]
ApoB knockdown relative PBS control (IV 0.0075 mg/kg total siRNA): −25%
ApoB knockdown relative PBS control (IV 0.015 mg/kg total siRNA): −41%
ApoB knockdown relative PBS control (IV 0.03 mg/kg total siRNA): −54%
